Source: the supplement of paper PMC7796163
± gives the uncertainty stated by the source.

Experiments:
Test in all cases: CYP enzyme activity (probe substrate metabolite formation) fold change vs solvent control; higher = stronger induction of CYP activity
Conditions in all cases: HepaRG
CYP2D6 = CYP2D6 (UniProt P10635)
Experimental: (§1)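 Differentiated HepaRG cells were treated with 1, 5 or 10 µM of each PAH (0.5% DMSO) for 12, 24 or 48 h, then incubated for 3 h at 37 °C with a cocktail of isoform-specific CYP substrates (phenacetin for CYP1A2, bupropion for CYP2B6, amodiaquine for CYP2C8, tolbutamide for CYP2C9, mephenytoin for CYP2C19, propafenone for CYP2D6, atorvastatin for CYP3A4). Metabolite formation was quantified by LC-MS as a measure of CYP activity and reported as fold change over solvent control (mean ± SD, n=3). Values below the LLOQ were set to half the LLOQ.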

CYP3A4 = CYP3A4 (UniProt P08684)
Sequence of CYP3A4 (P08684 whole entry): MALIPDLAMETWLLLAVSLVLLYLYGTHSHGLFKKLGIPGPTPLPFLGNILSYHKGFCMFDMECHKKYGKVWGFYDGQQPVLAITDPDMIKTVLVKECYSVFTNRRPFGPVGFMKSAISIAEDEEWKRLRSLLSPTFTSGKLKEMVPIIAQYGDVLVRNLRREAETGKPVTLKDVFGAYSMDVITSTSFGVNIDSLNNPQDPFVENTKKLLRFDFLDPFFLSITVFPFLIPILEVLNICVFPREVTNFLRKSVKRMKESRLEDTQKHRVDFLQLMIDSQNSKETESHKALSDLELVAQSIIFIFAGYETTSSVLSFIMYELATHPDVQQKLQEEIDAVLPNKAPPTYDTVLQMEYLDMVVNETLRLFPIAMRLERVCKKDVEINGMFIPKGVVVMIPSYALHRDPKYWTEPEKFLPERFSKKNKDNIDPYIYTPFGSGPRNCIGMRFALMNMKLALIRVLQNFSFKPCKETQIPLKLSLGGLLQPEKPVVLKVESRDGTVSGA
Experimental: as §1

CYP2C9 = CYP2C9 (UniProt P11712)
Sequence of CYP2C9 (P11712 whole entry): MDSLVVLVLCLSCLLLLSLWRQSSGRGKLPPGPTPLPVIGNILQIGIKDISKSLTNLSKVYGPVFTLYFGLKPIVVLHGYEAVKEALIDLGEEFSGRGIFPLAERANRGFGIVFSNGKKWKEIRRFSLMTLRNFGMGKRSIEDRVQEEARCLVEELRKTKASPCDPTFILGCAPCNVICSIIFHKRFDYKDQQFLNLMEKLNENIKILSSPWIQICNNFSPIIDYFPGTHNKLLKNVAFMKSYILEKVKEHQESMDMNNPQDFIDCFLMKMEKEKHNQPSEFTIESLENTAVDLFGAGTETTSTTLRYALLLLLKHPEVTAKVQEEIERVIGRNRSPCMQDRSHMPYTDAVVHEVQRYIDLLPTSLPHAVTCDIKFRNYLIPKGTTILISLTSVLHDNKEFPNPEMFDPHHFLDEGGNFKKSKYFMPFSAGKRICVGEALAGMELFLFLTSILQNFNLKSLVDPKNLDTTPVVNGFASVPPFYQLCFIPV
Experimental: as §1

CYP2C19 = CYP2C19 (UniProt P33261)
Sequence of CYP2C19 (P33261 whole entry): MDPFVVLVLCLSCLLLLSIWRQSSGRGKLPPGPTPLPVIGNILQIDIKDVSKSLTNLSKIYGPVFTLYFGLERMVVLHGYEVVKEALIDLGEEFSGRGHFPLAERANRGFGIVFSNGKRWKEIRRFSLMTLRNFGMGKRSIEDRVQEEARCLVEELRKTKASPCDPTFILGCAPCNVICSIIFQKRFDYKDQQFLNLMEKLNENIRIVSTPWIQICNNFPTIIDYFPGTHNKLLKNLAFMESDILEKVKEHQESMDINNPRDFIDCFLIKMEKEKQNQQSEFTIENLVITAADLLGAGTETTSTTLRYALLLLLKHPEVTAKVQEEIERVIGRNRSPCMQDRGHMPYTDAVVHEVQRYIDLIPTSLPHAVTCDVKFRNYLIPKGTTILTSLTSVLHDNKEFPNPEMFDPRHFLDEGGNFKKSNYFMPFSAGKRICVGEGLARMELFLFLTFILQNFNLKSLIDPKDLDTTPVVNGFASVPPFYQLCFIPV
Experimental: as §1

CYP2B6 = target: T1, CYP2B6 (UniProt P20813)
T1 sequence (whole entry): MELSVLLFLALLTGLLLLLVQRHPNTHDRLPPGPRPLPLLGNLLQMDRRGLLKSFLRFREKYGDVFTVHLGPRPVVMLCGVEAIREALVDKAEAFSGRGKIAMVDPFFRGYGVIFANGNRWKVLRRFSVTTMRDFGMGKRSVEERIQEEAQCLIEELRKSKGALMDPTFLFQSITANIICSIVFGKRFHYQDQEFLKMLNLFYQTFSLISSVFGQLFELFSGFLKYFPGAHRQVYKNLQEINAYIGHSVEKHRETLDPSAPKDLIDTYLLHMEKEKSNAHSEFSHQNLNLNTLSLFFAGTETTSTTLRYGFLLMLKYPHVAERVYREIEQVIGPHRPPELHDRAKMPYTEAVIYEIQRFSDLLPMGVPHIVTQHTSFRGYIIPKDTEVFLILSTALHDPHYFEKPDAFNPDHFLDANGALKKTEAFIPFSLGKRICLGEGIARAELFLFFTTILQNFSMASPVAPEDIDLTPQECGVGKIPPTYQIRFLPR
Experimental: as §1

CYP1A2 = target: T2, CYP1A2 (UniProt P05177)
T2 sequence (whole entry): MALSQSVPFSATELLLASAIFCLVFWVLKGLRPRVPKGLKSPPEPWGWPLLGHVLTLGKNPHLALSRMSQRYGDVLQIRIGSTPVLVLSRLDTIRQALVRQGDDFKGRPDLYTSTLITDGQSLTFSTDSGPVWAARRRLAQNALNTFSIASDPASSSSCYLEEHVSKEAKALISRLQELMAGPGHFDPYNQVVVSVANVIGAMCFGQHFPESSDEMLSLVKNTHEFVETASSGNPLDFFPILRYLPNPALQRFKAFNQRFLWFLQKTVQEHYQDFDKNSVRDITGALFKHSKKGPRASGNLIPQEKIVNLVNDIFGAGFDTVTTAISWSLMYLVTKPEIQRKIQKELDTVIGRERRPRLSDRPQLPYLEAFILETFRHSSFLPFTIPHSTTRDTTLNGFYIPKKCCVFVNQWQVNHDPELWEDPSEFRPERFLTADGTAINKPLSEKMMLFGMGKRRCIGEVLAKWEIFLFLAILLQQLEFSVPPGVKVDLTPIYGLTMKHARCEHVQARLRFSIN
Experimental: as §1

CYP2C8 = target: T3, CYP2C8 (UniProt P10632)
T3 sequence (whole entry): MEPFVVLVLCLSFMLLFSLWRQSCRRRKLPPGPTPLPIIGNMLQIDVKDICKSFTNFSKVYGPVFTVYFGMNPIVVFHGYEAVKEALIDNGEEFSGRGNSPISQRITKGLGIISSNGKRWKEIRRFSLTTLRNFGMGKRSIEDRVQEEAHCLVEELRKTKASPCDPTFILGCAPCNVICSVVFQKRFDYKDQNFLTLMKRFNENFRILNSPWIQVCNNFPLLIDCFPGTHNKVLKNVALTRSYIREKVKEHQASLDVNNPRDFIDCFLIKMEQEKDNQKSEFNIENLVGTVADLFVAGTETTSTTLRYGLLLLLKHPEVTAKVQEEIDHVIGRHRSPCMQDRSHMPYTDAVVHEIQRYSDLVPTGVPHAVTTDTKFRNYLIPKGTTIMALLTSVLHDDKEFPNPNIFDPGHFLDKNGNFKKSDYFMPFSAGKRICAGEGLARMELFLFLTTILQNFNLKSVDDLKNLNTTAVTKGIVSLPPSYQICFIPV
Experimental: as §1

Sequence of CYP2D6 (P10635 whole entry, canonical isoform): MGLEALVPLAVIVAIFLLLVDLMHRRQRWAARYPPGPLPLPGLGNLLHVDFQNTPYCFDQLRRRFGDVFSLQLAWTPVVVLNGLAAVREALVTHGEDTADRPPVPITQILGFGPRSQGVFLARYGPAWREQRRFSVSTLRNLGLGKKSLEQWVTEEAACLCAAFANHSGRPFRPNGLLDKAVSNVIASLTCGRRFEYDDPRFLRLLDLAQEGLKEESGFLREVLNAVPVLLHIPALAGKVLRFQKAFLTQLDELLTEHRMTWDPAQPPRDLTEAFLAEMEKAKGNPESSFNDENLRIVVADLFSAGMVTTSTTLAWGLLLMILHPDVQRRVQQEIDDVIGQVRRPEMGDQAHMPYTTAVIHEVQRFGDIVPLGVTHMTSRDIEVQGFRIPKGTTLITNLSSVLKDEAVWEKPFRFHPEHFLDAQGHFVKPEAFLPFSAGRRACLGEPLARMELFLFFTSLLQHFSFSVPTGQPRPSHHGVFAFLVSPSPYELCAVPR

c1ccc2c3c(ccc2c1)-c1cccc2cccc-3c12 [benzo[j]fluoranthene]
CYP enzyme activity
Conditions | CYP1A2 | CYP2B6 | CYP2C8 | CYP2C9 | CYP2C19 | CYP2D6 | CYP3A4
1 µM, treatment time 12 h | 3.57 | 1.02 | 0.921 | 0.852 | 0.86 | 1.28 | 0.809
1 µM, treatment time 24 h | 2.09 | 1.27 | 0.903 | 0.88 | 0.826 | 0.87 | 0.702
1 µM, treatment time 48 h | 1.1 | 0.856 | 0.974 | 0.835 | 0.948 | 0.759 | 0.666
5 µM, treatment time 12 h | 6.59 | 1.21 | 0.894 | 0.826 | 0.97 | 1.94 | 0.883
5 µM, treatment time 24 h | 12.1 | 2.01 | 0.779 | 0.844 | 0.9 | 1.61 | 0.728
5 µM, treatment time 48 h | 4.57 | 1.32 | 0.798 | 0.734 | 0.882 | 0.711 | 0.694
10 µM, treatment time 12 h | 1.21 | 1.04 | 0.785 | 0.731 | 0.84 | 1.13 | 0.916
10 µM, treatment time 24 h | 23 | 2.03 | 0.751 | 0.771 | 0.867 | 2.94 | 0.715
10 µM, treatment time 48 h | 9.96 | 1.83 | 0.688 | 0.75 | 0.914 | 0.838 | 0.636

c1ccc2cc3c(cc2c1)-c1cccc2cccc-3c12 [benzo[k]fluoranthene]
CYP enzyme activity
Conditions | CYP1A2 | CYP2B6 | CYP2C8 | CYP2C9 | CYP2C19 | CYP2D6 | CYP3A4
1 µM, treatment time 12 h | 7.62 | 0.673 | 0.918 | 0.808 | 0.834 | 1.93 | 0.73
1 µM, treatment time 24 h | 15.3 | 0.763 | 0.793 | 0.744 | 0.702 | 1.9 | 0.633
1 µM, treatment time 48 h | 25.3 | 0.806 | 0.812 | 0.704 | 0.832 | 1.36 | 0.544
5 µM, treatment time 12 h | 9.06 | 0.751 | 0.875 | 0.76 | 0.854 | 2.35 | 0.89
5 µM, treatment time 24 h | 17.8 | 0.806 | 0.682 | 0.67 | 0.723 | 2.71 | 0.676
5 µM, treatment time 48 h | 27.3 | 0.574 | 0.278 | 0.396 | 0.577 | 1.62 | 0.342
10 µM, treatment time 12 h | 5.83 | 0.741 | 0.759 | 0.725 | 0.76 | 2.05 | 0.93
10 µM, treatment time 24 h | 16.9 | 0.923 | 0.625 | 0.594 | 0.754 | 2.98 | 0.732
10 µM, treatment time 48 h | 17.5 | 0.446 | 0.164 | 0.312 | 0.455 | 1.49 | 0.283

c1ccc2c(c1)cc1ccc3cccc4c5ccccc5c2c1c34 [dibenzo[a,l]pyrene]
CYP enzyme activity
Conditions | CYP1A2 | CYP2B6 | CYP2C8 | CYP2C9 | CYP2C19 | CYP2D6 | CYP3A4
1 µM, treatment time 12 h | 2.04 | 0.84 | 1 | 0.921 | 0.768 | 1.11 | 0.927
1 µM, treatment time 24 h | 1.35 | 0.906 | 0.987 | 0.918 | 0.823 | 0.798 | 0.778
1 µM, treatment time 48 h | 0.763 | 0.735 | 0.78 | 0.804 | 0.763 | 0.552 | 0.619
5 µM, treatment time 12 h | 1.61 | 0.611 | 0.644 | 0.753 | 0.741 | 1.28 | 0.768
5 µM, treatment time 24 h | 2.27 | 1.19 | 0.714 | 0.89 | 0.781 | 0.791 | 0.672
5 µM, treatment time 48 h | 0.603 | 0.584 | 0.326 | 0.472 | 0.53 | 0.288 | 0.385
10 µM, treatment time 12 h | 0.515 | 0.313 | 0.627 | 0.395 | 0.469 | 1.19 | 0.543
10 µM, treatment time 24 h | 1.39 | 1.22 | 0.639 | 0.732 | 0.689 | 0.789 | 0.471
10 µM, treatment time 48 h | 0.286 | 0.354 | 0.166 | 0.233 | 0.257 | 0.212 | 0.118

c1ccc2c(c1)-c1cccc3cccc-2c13 [fluoranthene]
CYP enzyme activity
Conditions | CYP1A2 | CYP2B6 | CYP2C8 | CYP2C9 | CYP2C19 | CYP2D6 | CYP3A4
1 µM, treatment time 12 h | 1.01 | 1.2 | 1.01 | 1.02 | 0.972 | 0.989 | 0.901
1 µM, treatment time 24 h | 0.943 | 1.58 | 1.06 | 1.09 | 0.974 | 0.981 | 0.98
1 µM, treatment time 48 h | 1.07 | 2.05 | 1.14 | 1.18 | 1.1 | 0.91 | 1.03
5 µM, treatment time 12 h | 1.33 | 1.35 | 0.987 | 1.17 | 1.09 | 1.16 | 1.01
5 µM, treatment time 24 h | 1.09 | 2.28 | 1.07 | 1.3 | 1.16 | 1.11 | 1.16
5 µM, treatment time 48 h | 1.27 | 3.59 | 1.14 | 1.34 | 1.26 | 1.06 | 1.28
10 µM, treatment time 12 h | 1.41 | 1.25 | 0.988 | 1.15 | 0.999 | 1.18 | 1
10 µM, treatment time 24 h | 1.07 | 2.01 | 1.04 | 1.11 | 0.995 | 1.08 | 1.03
10 µM, treatment time 48 h | 1.312 | 3.74 | 1.2 | 1.39 | 1.22 | 1.06 | 1.35
